Measurements from US20090124572A1, “Iron-containing nutritional supplement” (priority 2007, published 2009).

Legend:
[1] = dissolved in water; cited from earlier work
Caco-2 cells = test: In-solution treatment of Caco-2 cells, ferritin formation as index of iron uptake/bioavailability (Experiments 1 and 2); conditions: Experiment 1, 6-well plates, iron 20 μmol/L, AA 400 μmol/L, 20 hours
Method: Cell culture. Caco-2 cells were obtained from the American Type Culture Collection at passage 17 and used in experiments at passage 29-35. Cells were seeded at a density of 50,000 cells/cm^2 in collagen-treated 6-well or 24-well plates. The integrity of the monolayer was verified by optical microscopy. […] The cells were maintained in Dulbecco's Modified Eagle Medium (DMEM) plus 1% antibiotic/antimycotic solution, 25 mmol/L HEPES and 10% fetal bovine serum; the medium was changed every 2 days. Two days before the experiment, the growth medium was removed from each culture well, and the cell layer was washed and maintained with Minimum Essential Media (MEM) at pH 7.0. […] This enriched MEM contained less than 80 μg iron/L. Iron uptake experiments were conducted 13 days post-seeding.
Harvesting of Caco-2 cells for ferritin analysis. […] Ferritin concentration and total protein concentration were determined on an aliquot of the harvested cell suspension with a one-stage sandwich immunoradiometric assay and a colorimetric assay, respectively. […] Therefore, the ratio of ferritin/total protein expressed as ng ferritin/mg protein, was used as an index of the cellular iron uptake.
In-solution treatment. […] Cellular ferritin and total protein was then analyzed and compared among all treatments. […]

Molecule	pH of aqueous solution [1]	ferritin formation in Caco-2 cells in the presence of ascorbic acid (Caco-2 cells)
ferrous sulfate	about 2	
[Cl][Fe]([Cl])[Cl] [FeCl3, ferric chloride]		significantly lower
